Columns and labels:
Test in all cases: CTG-3D luminescence at 96 h relative to day-0 seeding control (ratio to day 0); higher = more growth / less cytotoxicity; PDxO 3D drug screen (set 2), 96 h, CTG-3D normalised to day-0 seeding control.
HCI-005.E2 = test system: HCI-005.E2 (organoid from a breast cancer xenograft with a HER2-positive history)
HCI-010 = test system: HCI-010 (organoid from a breast cancer xenograft)
HCI-011.E2 = test system: HCI-011.E2 (organoid from an ER-positive breast cancer xenograft)
HCI-012 = test system: HCI-012 (organoid from a breast cancer xenograft)
HCI-016 = test system: HCI-016 (organoid from a triple-negative breast cancer xenograft)
HCI-017.E2 = test system: HCI-017.E2 (organoid from an ER-positive breast cancer xenograft)

CC(=O)c1c(C)c2cnc(Nc3ccc(N4CCNCC4)cn3)nc2n(C2CCCC2)c1=O [palbociclib]
CTG-3D luminescence at 96 h
Conditions	12.5 pM	0.00025 µM	0.005 µM	0.1 µM	1 µM	10 µM	100 µM	625 fM
HCI-005.E2	1.84	2.56	2.41	3.06	2.51	2.16	0.934	2.38
HCI-011.E2	1.41	1.8	1.29	1.53	1.49	1.92	1.44	1.86
HCI-017.E2	2	2.45	2.1	2.37	1.98	2.346	1.25	2.23

CTG-3D luminescence at 96 h
Conditions	12.5 pM	0.00025 µM	0.005 µM	0.1 µM	1 µM	10 µM	100 µM	625 fM
HCI-010, days in culture: 79	1.68	1.69	1.79	1.9	1.71	1.47	0.772	1.88
HCI-010, days in culture: 86	2.36	2.42	2.72	2.52	2.49	2.34	1.26	2.21
HCI-010, days in culture: 102	1.09	1.35	1.2	1.65	1.56	1.54	0.787	1.15
HCI-010, days in culture: 164	1.31	1.57	1.74	1.67	1.73	1.25	0.562	1.37
HCI-011.E2, days in culture: 74	2.34	2.11	2.43	2.43	1.74	2.51	1.52	2.09
HCI-012, days in culture: 214	2.51	1.31	1.58	1.96	2.63	2.66	0.494	1.78
HCI-012, days in culture: 243	2.23	2.46	1.58	2.71	2.27	2.37	1.29	3.76
HCI-012, days in culture: 256	1.88	2.23	1.63	3.14	2.13	1.8	0.605	2.46
HCI-012, days in culture: 284	1.65	2.5	2.04	2.56	1.9	2.78	0.731	4.06
HCI-016, days in culture: 305	2.74	2.8	2.81	3.01	2.9	1.83	2.12	3.73
HCI-016, days in culture: 327	0.926	1.04	1.84	1.67	1.15	1.59	0.478	1.3
HCI-016, days in culture: 341	2.28	1.75	1.74	2.25	1.67	1.9	0.71	2.48
HCI-016, days in culture: 397	2	2.56	1.48	2.7	2.38	1.99	0.831	2.9
HCI-017.E2, days in culture: 85	2.34	1.47	2.15	2.41	1.66	1.8	1.58	1.96

Cc1c(CN2CCN(C(=O)[C@H](C)O)CC2)sc2c(N3CCOCC3)nc(-c3cnc(N)nc3)nc12 [apitolisib]
CTG-3D luminescence at 96 h
Conditions	12.5 pM	0.00025 µM	0.005 µM	0.1 µM	1 µM	10 µM	100 µM	625 fM
HCI-005.E2	1.87	2.22	2.35	1.75	0.429	0.481	0.444	2.21
HCI-011.E2	1.62	1.71	1.3004	0.978	0.232	0.17	0.377	1.89
HCI-017.E2	2.28	2.54	2.21	1.43	0.397	0.399	0.223	2.43

CTG-3D luminescence at 96 h
Conditions	12.5 pM	0.00025 µM	0.005 µM	0.1 µM	1 µM	10 µM	100 µM	625 fM
HCI-010, days in culture: 79	1.94	1.83	1.96	1.68	0.503	0.107	0.0163	2.13
HCI-010, days in culture: 86	2.03	2.34	2.49	1.94	0.554	0.242	0.088	2.27
HCI-010, days in culture: 102	1.17	1.35	1.21	0.954	0.286	0.0291	0.0044	0.944
HCI-010, days in culture: 164	1.71	1.39	1.57	1.27	0.641	0.265	0.0363	1.33
HCI-011.E2, days in culture: 74	2.37	2.08	1.85	1.24	0.177	0.0892	0.218	2.23
HCI-012, days in culture: 214	3.46	3.38	1.52	1.74	0.672	0.176	0.0363	3.26
HCI-012, days in culture: 243	2.34	2.6	2.13	1.48	0.554	0.118	0.0299	2.51
HCI-012, days in culture: 256	2.08	2.2	2.08	2.67	0.805	0.1	0.0191	2.05
HCI-012, days in culture: 284	2.16	2.93	1.47	1.97	0.681	0.102	0.0089	3.29
HCI-016, days in culture: 305	2.28	2.68	3.05	3.53	0.981	0.764	0.885	4.57
HCI-016, days in culture: 327	1.06	1.19	1.2	1.18	0.573	0.82	0.546	1.62
HCI-016, days in culture: 341	2.23	1.71	1.7	1.65	0.831	0.768	0.618	2.56
HCI-016, days in culture: 397	1.26	1.89	1.41	1.48	0.778	0.916	0.378	1.87
HCI-017.E2, days in culture: 85	2.14	1.73	1.52	1.36	0.359	0.278	0.161	2.09

— the supplement of paper PMC8882468
